We go through nine compounds from PubChem BioAssay (NCI).

Molecules are shown by their SMILES.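 Each compound was tested at five concentrations against cells in 96-well plates for 48 hours. GI50: concentration for 50% inhibition of growth. TGI is the concentration that stops growth completely.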

Test systems include ACHN renal; COLO 205 colon; EKVX NSCLC; KM12 colon; LOX IMVI melanoma; NCI-H460 lung; OVCAR-3 ovarian; U251 CNS; OVCAR-4 ovarian.
What all share (assay): NCI-60 cell line screen, 48 h

Turning to `O=C(/C=C/c1cc(O)ccc1O)c1ccc(Cl)cc1`, the GI50 in the assay with ACHN renal was 25.2 µM; in the assay on COLO 205 colon, 38.2 µM; in the assay with EKVX NSCLC, 23.4 µM; with KM12 colon, 31.8 µM; in the assay with LOX IMVI melanoma it was 18.4 µM; in the assay with NCI-H460 lung it was 32.5 µM. Besides, the figures for the GI50 in the assay with OVCAR-3 ovarian and in the assay on U251 CNS were 57.7 µM and 19.6 µM, respectively. Also, the TGI is over 100 µM with ACHN renal; over 100 µM in the assay on COLO 205 colon; 54.7 µM with EKVX NSCLC; over 100 µM in the assay with KM12 colon; 48.4 µM with LOX IMVI melanoma; over 100 µM in the assay on NCI-H460 lung. Further, the TGI in the assay on OVCAR-3 ovarian was over 100 µM; in the assay with U251 CNS it was 51.2 µM.

Turning to `CCOC(=O)CC1C(CNC(=O)NC)OC(n2cnc3c(NC(=O)Nc4ccccc4)ncnc32)C1O[Si](C)(C)C(C)(C)C` (stereo not given), the GI50 with ACHN renal was 8.55 µM; with COLO 205 colon, 3.84 µM; in the assay on EKVX NSCLC, 17.7 µM; in the assay with KM12 colon it was 3.95 µM; with LOX IMVI melanoma it was 5.46 µM; in the assay with NCI-H460 lung it was 5.53 µM. Further, the GI50 was 4.59 µM in the assay on OVCAR-3 ovarian, 12.3 µM in the assay with OVCAR-4 ovarian and 4.69 µM in the assay with U251 CNS. Also, the TGI was over 100 µM in the assay with ACHN renal; over 100 µM in the assay with COLO 205 colon; over 100 µM with EKVX NSCLC; 20.9 µM with KM12 colon; over 100 µM in the assay with LOX IMVI melanoma; 25 µM in the assay on NCI-H460 lung. Besides, the results for the TGI with OVCAR-3 ovarian, in the assay with OVCAR-4 ovarian and with U251 CNS were 17.2 µM, over 100 µM and 20.9 µM, respectively.

Take `OCC(O)C(OC1OC(CO)C(O)C(O)C1O)c1nn(-c2ccc(Cl)cc2)c2nc3cc(Cl)c(Cl)cc3nc12` (stereo not given): the TGI in the assay with ACHN renal, with EKVX NSCLC, in the assay with KM12 colon, with LOX IMVI melanoma, in the assay on NCI-H460 lung and in the assay with OVCAR-3 ovarian was over 100 µM throughout. For the same compound, the TGI in the assay on OVCAR-4 ovarian and in the assay with U251 CNS was over 100 µM in each case.

In the case of `CC(=O)NC(CCCCN(Cc1ccccc1)C(=O)N(C)N=O)C(=O)NCc1ccccc1` (stereo not given), the TGI with ACHN renal, in the assay with COLO 205 colon, in the assay on EKVX NSCLC, with KM12 colon, in the assay on LOX IMVI melanoma and in the assay on NCI-H460 lung was over 100 µM in each case. Also, the TGI in the assay with OVCAR-3 ovarian, in the assay on OVCAR-4 ovarian and with U251 CNS was over 100 µM throughout.

Turning to `[N-]=[N+]=Nc1nnc(CCCCc2nnc(N=[N+]=[N-])o2)o1`, the TGI with ACHN renal, in the assay on COLO 205 colon, in the assay with EKVX NSCLC, with KM12 colon, in the assay with LOX IMVI melanoma and in the assay on NCI-H460 lung was over 100 µM each time. The TGI with OVCAR-3 ovarian, with OVCAR-4 ovarian and in the assay on U251 CNS was over 100 µM in each case.

In the case of `Nc1ncnc2c1N=CN(Oc1ccccc1)N2`, the TGI in the assay on ACHN renal, with COLO 205 colon, in the assay with EKVX NSCLC, in the assay on KM12 colon, in the assay with NCI-H460 lung and in the assay on OVCAR-3 ovarian was over 100 µM throughout. The TGI with OVCAR-4 ovarian and in the assay on U251 CNS was over 100 µM each time.

In the case of `CCOC(=O)C1=C(Nc2cccc3ccccc23)OCC1=O`, the TGI in the assay on ACHN renal, with COLO 205 colon, in the assay on EKVX NSCLC, with KM12 colon, in the assay with NCI-H460 lung and in the assay on OVCAR-3 ovarian was over 100 µM in each case. In addition, the TGI in the assay with OVCAR-4 ovarian and in the assay with U251 CNS was over 100 µM throughout.

With `Clc1ccc2c(NCCNc3nc(N4CCCCC4)nc4ccccc34)ccnc2c1`, the GI50 in the assay on ACHN renal was 1.79 µM; with COLO 205 colon it was 1.19 µM; with EKVX NSCLC, 4.07 µM; in the assay with KM12 colon, 3.39 µM; in the assay on LOX IMVI melanoma, 1.58 µM; with OVCAR-3 ovarian, 1.75 µM. The GI50 in the assay on OVCAR-4 ovarian is 2.81 µM; in the assay with U251 CNS, 2.08 µM. Further, the TGI is 3.59 µM with ACHN renal; 2.84 µM with COLO 205 colon; 17.2 µM with EKVX NSCLC; 12.7 µM in the assay on KM12 colon; 3.36 µM in the assay with LOX IMVI melanoma; 3.65 µM in the assay on OVCAR-3 ovarian. For the same compound, the TGI in the assay on OVCAR-4 ovarian was determined as 13.8 µM; with U251 CNS, 5.15 µM.

In the case of `O=CCC(O)C(O)C(O)CO` (stereo not given), the GI50 in the assay with ACHN renal, in the assay on COLO 205 colon, with EKVX NSCLC, in the assay with KM12 colon, in the assay on LOX IMVI melanoma and in the assay on NCI-H460 lung was over 100 µM each time. In addition, the GI50 in the assay with OVCAR-3 ovarian, in the assay on OVCAR-4 ovarian and in the assay on U251 CNS was over 100 µM throughout. Moreover, the TGI in the assay on ACHN renal, with COLO 205 colon, in the assay with EKVX NSCLC, in the assay on KM12 colon, in the assay on LOX IMVI melanoma and with NCI-H460 lung was over 100 µM throughout. The TGI with OVCAR-3 ovarian, in the assay with OVCAR-4 ovarian and with U251 CNS was over 100 µM throughout.
